# Laboratory results from publication PMC9511493, “2-(Fluoromethoxy)-4′-(S-methanesulfonimidoyl)-1,1′-biphenyl (UCM-1306), an Orally Bioavailable Positive Allosteric Modulator of the Human Dopamine D1 Receptor for Parkinson’s Disease” (Journal of Medicinal Chemistry, 2022).
# Values joined by “and” are separate entries in the source; they are usually repeats but may differ in a detail not shown here. Equal entries are not always repeated. “Also recorded” adds a separate entry of the source. Where two headings read alike, the source gives them in different places.
# Columns and labels:
# Type in all cases: in vivo, mouse
# C57BL/6J mice [1] = assay: cocaine-induced hyperlocomotion assay; details: 1 mg/kg ip
# Procedure: The experiment was conducted in adherence to the European Communities Council Directive (86/609/ECC) and Spanish regulations (BOE 252/34367-91, 2005) for the use of laboratory animals. The assay was performed according to a previously reported method[57] using 3 month old male mice with C57BL/6J background, and 8 mice were used for each experimental condition. All mice were handled and habituated to the injection procedures once per day for 5 days prior to behavioral testing. Experiments were carried out between 8:00 and 20:00, and the animals were acclimated to the experimental room for 30 min each day. Performance in the open field was recorded by a computer-based video tracking system (Smart v2.5, Panlab, Barcelona, Spain). Four open fields (50 × 50 × 50 cm, Panlab) with gray backgrounds were used, and the maximum light intensity in the center of the open field was 100 lux. Animals received a dose of 26 (1 mg/kg, ip) in a volume of 20 mL/kg of sterile saline as the vehicle, 15 min prior to a dose of cocaine (20 mg/kg, sc). Five min after cocaine injection, animals were placed in the open field and locomotion was measured at […] along a 30-min period of analysis. Horizontal locomotion was measured as total distance traveled (cm).
# [2] = test system: reserpinized C57BL/6 mice; assay: locomotor activity in reserpinized mice
# Procedure: (§1) The study was carried out in male C57BL/6 wild-type (22–25 g) mice that were acclimatized for 5 days. Animals were randomized based on body weight into six groups (G1 to G6), ten animals per group (n = 10), being group G1 the naïve control group. Animals were fed with standard diet ad libitum. Animals were dosed with subcutaneous administration of reserpine (2.5 mg/kg in DMSO/saline) and after 20 h they were treated with a vehicle (10 mL/kg, po), compound 26 (30 mg/kg, po), L-DOPA (100 or 400 mg/kg, ip) + carbidopa (100 mg/kg, ip) and/or their combination, as indicated in Figure 7. The vehicle employed for compound 26 administration was 5% NMP + 5% solutol HS-15 + 90% normal saline. L-DOPA and carbidopa were administered 30 min prior to start of locomotor activity recording. Compound 26 was administered and 15 min later, mice were placed in the locomotor activity cage to measure the locomotor activity for 60 min (total distance travelled) using ALL Maze version 0.5 automated software enabled with video tracking system. After the activity sessions, raw data were reduced using ALL Maze 5.0 software and Microsoft Excel. Statistical analysis was done with GraphPad Prism-5 using one way ANOVA followed by Dunnett’s test/Tukey’s post hoc test and/or two-way ANOVA followed by Bonferroni post hoc test. Data were considered statistically significant, if P value was less than 0.05.
# C57BL/6J mice [3] = assay: novel object recognition test; details: 1 mg/kg ip; tested at 24 and 96 h
# Procedure: Procedures for animal experiments were conducted in adherence to the European Communities Council Directive (86/609/ECC) and Spanish regulations (BOE 252/34367-91, 2005) for the use of laboratory animals. Experiments were performed on 3 month old male mice with a C57BL/6J background. Eight mice were used for each experimental condition. Mice were maintained on a 12 h light/dark cycle (lights on at 08:00 am), with water and food provided ad libitum. Object recognition test was performed according to a previously reported method.[58] Briefly, mice were first habituated to an empty open field apparatus (40 × 40 × 40 cm) for 5 min. After the habituation session, mice received an ip injection of compound 26 (1 mg/kg) or vehicle (NaCl 0.9%). Twenty minutes later, mice were placed again in the open field, which now included two identical copies of an object (“familiar” object) located in two adjacent corners, and mice were allowed to explore for 10 min (acquisition session). […] The total time of object exploration (defined as the mouse touching an object with its nose or forepaws) was scored, and object recognition memory was calculated by the following discrimination ratio: time exploring the new object—time exploring the familiar object)/total time exploring both objects.
# [4] = plasma and brain concentrations in the locomotor activity study; details: 30 mg/kg po; for concentration at 30 min / concentration at 60 min: male, C57BL/6, mouse, po, 30 mg/kg
# Procedure: Regarding the PD model, reserpine is an alkaloid known to induce hypomobility/akinesia and rigidity, and reserpinized rodents are widely used as a preclinical model for PD.
# as §1, with “0.05. […]” for “0.05.”
# Table S2.Plasma and brain concentrations achieved for compound 26in the locomotor
# Plasma concentration (ng/mL) Brain concentration (ng/mL)
# Animal 30 min 60 min Animal 30 min 60 min
smiles,measurement,setting,value
"CS(=N)(=O)c1ccc(-c2ccccc2OCF)cc1 (stereo not shown) [Compound 26, 2-(Fluoromethoxy)-4′-(S-methanesulfonimidoyl)-1,1′-biphenyl]",effect on cocaine-induced hyperlocomotion,C57BL/6J mice [1]; 15 min before cocaine 20 mg/kg sc,"potentiated the hyperlocomotion induced by cocaine; also recorded: enhanced cocaine (20 mg/kg, sc)-induced hyperlocomotion"
same,"intrinsic locomotor activity, compound alone",C57BL/6J mice [1]; no cocaine,no intrinsic locomotor activity
same,adverse effects observed in the animals,"[2]; after oral dose administration, 30 mg/kg",no sign of adverse effects
same,effect on locomotor activity in combination with L-DOPA,"[2]; reserpine 2.5 mg/kg sc, 26 30 mg/kg po plus L-DOPA 100 or 400 mg/kg ip",moderate synergistic effect
same,"recovery of decreased locomotor activity, substance alone","[2]; reserpine 2.5 mg/kg sc, 26 30 mg/kg po, L-DOPA 100 or 400 mg/kg ip",small recovery of decreased locomotor activity
same,memory in the novel object recognition test,C57BL/6J mice [3],increases memory trace; also recorded: Enhanced memory
same,"Brain concentration (ng/mL), individual animals 1-3",[4]; 30 min,7185.33 ng/mL and 5537.43 ng/mL
same,"Plasma concentration (ng/mL), individual animals 1-3",[4]; 30 min,9994.87 ng/mL and 7753.96 ng/mL
same,"Brain concentration (ng/mL), individual animals 1-3",[4]; 60 min,5552.94 ng/mL and 2620.14 ng/mL and 4178.34 ng/mL
same,"Plasma concentration (ng/mL), individual animals 1-3",[4]; 60 min,6716.72 ng/mL and 6187.65 ng/mL and 1662.96 ng/mL
same,concentration at 30 min,"[4]; brain, 30 min, read-out: Brain concentration (ng/mL), individual animals 1-3",7340 ng/mL
same,concentration at 30 min,"[4]; brain, 30 min, read-out: Brain concentration (ng/mL), mean",6690 ng/mL
same,concentration at 60 min,"[4]; brain, 60 min, read-out: Brain concentration (ng/mL), mean",4120 ng/mL
same,concentration at 30 min,"[4]; plasma, 30 min, read-out: Plasma concentration (ng/mL), individual animals 1-3",9690 ng/mL
same,concentration at 30 min,"[4]; plasma, 30 min, read-out: Plasma concentration (ng/mL), mean",9150 ng/mL
same,concentration at 60 min,"[4]; plasma, 60 min, read-out: Plasma concentration (ng/mL), mean",4860 ng/mL
